Counter-ions that a name gives are not always drawn.
molecular target: T1, Nav 1.7 (Homo sapiens, UniProt Q15858); assay: Whole-cell voltage clamp electrophysiology, automated patch clamp (marker c in Table of Examples); type: cell-based; conditions: marker c = Automated patch clamp data; read-out: Nav 1.7 activity
T1 construct: expressed in transfected cells
In short: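 Human NaV1.7 currents were recorded by whole-cell automated patch clamp, on IonWorks Quattro or another automated platform, typically in perforated-patch configuration. The stimulus protocol was designed to probe block mainly of the inactivated state, with a typical sweep stepping from about −65 mV holding to −10 mV, then −100 mV.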

T1 sequence (Q15858 whole entry): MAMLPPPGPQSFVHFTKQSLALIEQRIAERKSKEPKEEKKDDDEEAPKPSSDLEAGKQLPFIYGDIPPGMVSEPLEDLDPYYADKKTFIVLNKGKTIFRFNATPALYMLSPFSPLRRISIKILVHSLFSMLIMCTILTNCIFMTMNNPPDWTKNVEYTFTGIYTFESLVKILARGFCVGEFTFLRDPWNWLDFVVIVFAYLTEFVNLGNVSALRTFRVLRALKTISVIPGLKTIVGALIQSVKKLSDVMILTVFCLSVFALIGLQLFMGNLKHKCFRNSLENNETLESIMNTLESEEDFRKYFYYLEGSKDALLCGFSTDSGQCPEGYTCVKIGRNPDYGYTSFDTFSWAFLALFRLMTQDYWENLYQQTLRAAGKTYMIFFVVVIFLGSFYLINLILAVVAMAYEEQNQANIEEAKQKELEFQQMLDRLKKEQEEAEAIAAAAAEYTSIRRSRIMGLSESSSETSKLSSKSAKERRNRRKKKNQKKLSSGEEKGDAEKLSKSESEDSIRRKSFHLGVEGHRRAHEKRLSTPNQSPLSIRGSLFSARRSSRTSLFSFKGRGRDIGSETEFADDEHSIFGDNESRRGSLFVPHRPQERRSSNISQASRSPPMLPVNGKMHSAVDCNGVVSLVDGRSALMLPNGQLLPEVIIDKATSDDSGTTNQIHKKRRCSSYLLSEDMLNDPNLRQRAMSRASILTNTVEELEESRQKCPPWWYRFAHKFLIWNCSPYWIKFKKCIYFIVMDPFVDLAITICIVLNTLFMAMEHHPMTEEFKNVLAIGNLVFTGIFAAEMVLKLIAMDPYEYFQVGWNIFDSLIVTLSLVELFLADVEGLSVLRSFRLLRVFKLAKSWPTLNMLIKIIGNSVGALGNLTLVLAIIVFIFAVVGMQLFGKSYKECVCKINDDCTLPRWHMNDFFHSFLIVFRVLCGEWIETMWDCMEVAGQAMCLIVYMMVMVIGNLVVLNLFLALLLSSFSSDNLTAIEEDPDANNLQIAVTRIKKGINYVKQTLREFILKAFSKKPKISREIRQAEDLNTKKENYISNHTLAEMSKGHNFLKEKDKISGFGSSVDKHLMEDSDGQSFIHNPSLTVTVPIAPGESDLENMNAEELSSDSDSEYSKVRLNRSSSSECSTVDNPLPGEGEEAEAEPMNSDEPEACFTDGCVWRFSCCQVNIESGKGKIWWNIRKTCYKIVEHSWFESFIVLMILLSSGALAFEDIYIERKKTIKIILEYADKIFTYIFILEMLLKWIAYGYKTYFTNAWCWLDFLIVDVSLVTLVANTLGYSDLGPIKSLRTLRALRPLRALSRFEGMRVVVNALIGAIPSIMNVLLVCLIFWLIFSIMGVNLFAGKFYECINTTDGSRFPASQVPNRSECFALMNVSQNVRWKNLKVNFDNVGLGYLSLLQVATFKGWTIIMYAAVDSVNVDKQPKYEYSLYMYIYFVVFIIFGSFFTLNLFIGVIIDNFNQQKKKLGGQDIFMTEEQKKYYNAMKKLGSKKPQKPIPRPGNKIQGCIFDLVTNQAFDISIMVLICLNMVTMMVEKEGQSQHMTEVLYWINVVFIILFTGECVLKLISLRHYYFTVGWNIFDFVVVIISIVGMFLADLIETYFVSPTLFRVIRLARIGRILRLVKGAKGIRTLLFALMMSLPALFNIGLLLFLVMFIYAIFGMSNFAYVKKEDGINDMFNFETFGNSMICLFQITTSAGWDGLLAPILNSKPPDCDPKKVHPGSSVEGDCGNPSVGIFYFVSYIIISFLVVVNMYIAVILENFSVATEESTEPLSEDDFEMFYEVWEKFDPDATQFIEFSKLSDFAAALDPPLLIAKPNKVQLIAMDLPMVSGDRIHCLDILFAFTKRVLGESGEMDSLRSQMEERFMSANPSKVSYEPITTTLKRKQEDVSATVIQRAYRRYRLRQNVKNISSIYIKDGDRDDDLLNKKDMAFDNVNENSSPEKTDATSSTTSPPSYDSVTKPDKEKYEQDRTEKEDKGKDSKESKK

| IC50 [nM] | Compound |
| --- | --- |
| 3610 | Nc1nc(Nc2ccccc2)nc(-c2noc(C(=O)N3CCC(OCC4CC4)CC3)n2)n1 [Example 462, 6-(5-{[4-(cyclopropylmethoxy)piperidin-1-yl]carbonyl}-1,2,4-oxadiazol-3-yl)-2-N-phenyl-1,3,5-triazine-2,4-diamine] |
| 1820 | Nc1nc(Nc2ccccc2)nc(-c2noc(C(=O)N3CCC(COCC4CC4)CC3)n2)n1 [Example 463, 6-[5-({4-[(cyclopropylmethoxy)methyl]piperidin-1-yl}carbonyl)-1,2,4-oxadiazol-3-yl]-2-N-phenyl-1,3,5-triazine-2,4-diamine] |
| 603 | CC(C)(C)OC(=O)N1CCC(c2nc(-c3nc(N)nc(Nc4ccccc4)n3)no2)CC1 [Example 512, tert-butyl 4-{3-[4-amino-6-(phenylamino)-1,3,5-triazin-2-yl]-1,2,4-oxadiazol-5-yl}piperidine-1-carboxylate] |
| 201 | CN(c1cccc(F)c1)c1nc(N)nc(-c2noc(-c3ccc(OCC(F)(F)F)nc3)n2)n1 [Example 407, 2-N-(3-fluorophenyl)-2-N-methyl-6-{5-[6-(2,2,2-trifluoroethoxy)pyridin-3-yl]-1,2,4-oxadiazol-3-yl}-1,3,5-triazine-2,4-diamine] |
| 695 | CC(C)Oc1cccnc1-c1nc(-c2nc(N)nc(N(C)c3ccccc3)n2)no1 [Example 484, 2-N-methyl-2-N-phenyl-6-{5-[3-(propan-2-yloxy)pyridin-2-yl]-1,2,4-oxadiazol-3-yl}-1,3,5-triazine-2,4-diamine] |
| 142 | Nc1nc(Nc2ccccc2)nc(-c2noc(-c3ncccc3Cl)n2)n1 [Example 431, 6-[5-(3-chloropyridin-2-yl)-1,2,4-oxadiazol-3-yl]-2-N-phenyl-1,3,5-triazine-2,4-diamine] |
| 2060 | CC(C)SC1CCN(c2nc(-c3nc(N)nc(N(C)c4ccccc4)n3)no2)CC1 [Example 367, 2-N-methyl-2-N-phenyl-6-{5-[4-(propan-2-ylsulfanyl)piperidin-1-yl]-1,2,4-oxadiazol-3-yl}-1,3,5-triazine-2,4-diamine] |
| 83 | CN(c1ccccc1)c1nc(N)nc(-c2noc(-c3cccnc3C(=O)OC3CCCC3)n2)n1 [Example 380, cyclopentyl 3-(3-{4-amino-6-[methyl(phenyl)amino]-1,3,5-triazin-2-yl}-1,2,4-oxadiazol-5-yl)pyridine-2-carboxylate] |
| 3210 | Nc1nc(Nc2ccccc2)nc(-c2noc(NC3CCCC3)n2)n1 [Example 231, 6-[5-(cyclopentylamino)-1,2,4-oxadiazol-3-yl]-2-N-phenyl-1,3,5-triazine-2,4-diamine] |
| 2920 | CN(c1ccccc1)c1nc(N)nc(-c2noc(-c3ccnnc3)n2)n1 [Example 469, 2-N-methyl-2-N-phenyl-6-[5-(pyridazin-4-yl)-1,2,4-oxadiazol-3-yl]-1,3,5-triazine-2,4-diamine] |
| 2080 | CN(c1ccccc1)c1nc(N)nc(-c2noc(-c3cccnc3C(=O)NC3CCC3)n2)n1 [Example 374, 3-(3-{4-amino-6-[methyl(phenyl)amino]-1,3,5-triazin-2-yl}-1,2,4-oxadiazol-5-yl)-N-cyclobutylpyridine-2-carboxamide] |
| 2.5 | CN(c1ccccc1)c1nc(N)nc(-c2noc(-c3ccc(COCC(F)(F)F)cn3)n2)n1 [Example 349, 2-N-methyl-2-N-phenyl-6-(5-{5-[(2,2,2-trifluoroethoxy)methyl]pyridin-2-yl}-1,2,4-oxadiazol-3-yl)-1,3,5-triazine-2,4-diamine] |
| 5950 | CN(c1ccccc1)c1nc(N)nc(-c2noc(C3CCC(NC(=O)C(F)(F)F)CC3)n2)n1 (stereo not shown) [Example 428, N-[4-(3-{4-amino-6-[methyl(phenyl)amino]-1,3,5-triazin-2-yl}-1,2,4-oxadiazol-5-yl)cyclohexyl]-2,2,2-trifluoroacetamide] |
| 390 | CC(C)OC(=O)c1ccc(-c2nc(-c3nc(N)nc(N(C)c4ccccc4)n3)no2)cn1 [Example 289, propan-2-yl 5-(3-{4-amino-6-[methyl(phenyl)amino]-1,3,5-triazin-2-yl}-1,2,4-oxadiazol-5-yl)pyridine-2-carboxylate] |
| 167 | COCCN(c1ccccc1)c1nc(N)nc(-c2noc(-c3c(F)cccc3OC)n2)n1 [Example 437, 6-[5-(2-fluoro-6-methoxyphenyl)-1,2,4-oxadiazol-3-yl]-2-N-(2-methoxyethyl)-2-N-phenyl-1,3,5-triazine-2,4-diamine] |
| 1390 | CN(c1ccccc1)c1nc(N)nc(-c2noc(C3CC(Oc4ccccc4)C3)n2)n1 (mixture of isomers) [Example 261, 2-N-Methyl-6-[5-(3-phenoxycyclobutyl)-1,2,4-oxadiazol-3-yl]-2-N-phenyl-1,3,5-triazine-2,4-diamine] |
| 1730 | CCC(C)S(=O)(=O)N1CCC(c2nc(-c3nc(N)nc(Nc4ccccc4)n3)no2)CC1 (stereo not shown) [Example 514, 6-{5-[1-(butane-2-sulfonyl)piperidin-4-yl]-1,2,4-oxadiazol-3-yl}-2-N-phenyl-1,3,5-triazine-2,4-diamine] |
| 3250 | CN(c1ccccc1)c1nc(N)nc(-c2noc(-c3ccnn3CC(F)(F)F)n2)n1 [Example 257, 2-N-methyl-2-N-phenyl-6-{5-[1 - (2,2,2-trifluoroethyl)-1H-pyrazol-5-yl]-1,2,4-oxadiazol-3-yl}-1,3,5-triazine-2,4-diamine] |
| 4060 | CN(c1ccccc1)c1nc(N)nc(-c2noc([C@H]3CCCN3)n2)n1 [Example 439, 2-N-methyl-2-N-phenyl-6-{5-[(2R)-pyrrolidin-2-yl]-1,2,4-oxadiazol-3-yl}-1,3,5-triazine-2,4-diamine hydrochloride] |
| 464 | CN(c1ccccc1)c1nc(N)nc(-c2noc(-c3ncccc3N3CCOCC3)n2)n1 [Example 490, 2-N-methyl-6-{5-[3-(morpholin-4-yl)pyridin-2-yl]-1,2,4-oxadiazol-3-yl}-2-N-phenyl-1,3,5-triazine-2,4-diamine] |
| 1040 | CN(c1ccccc1)c1nc(N)nc(-c2noc(C(=O)N3CCC(SCC(F)(F)F)CC3)n2)n1 [Example 465, 2-N-methyl-2-N-phenyl-6-[5-({4-[(2,2,2-trifluoroethyl)sulfanyl]piperidin-1-yl}carbonyl)-1,2,4-oxadiazol-3-yl]-1,3,5-triazine-2,4-diamine] |
| 24 | CN(c1ccccc1)c1nc(N)nc(-c2noc(-c3ccc(OCCC(F)(F)F)nc3)n2)n1 [Example 359, 2-N-methyl-2-N-phenyl-6-{5-[6-(3,3,3-trifluoropropoxy)pyridin-3-yl]-1,2,4-oxadiazol-3-yl}-1,3,5-triazine-2,4-diamine] |
| 8000 | COC[C@H]1CCCN1c1nc(-c2nc(N)nc(N(C)c3ccccc3)n2)no1 [Example 444, 6-{5-[(2R)-2-(methoxymethyl)pyrrolidin-1-yl]-1,2,4-oxadiazol-3-yl}-2-N-methyl-2-N-phenyl-1,3,5-triazine-2,4-diamine] |

same assay, conditions: marker c: Automated patch clamp data; read-out: Nav 1.7 activity

| IC50 [nM] | Compound |
| --- | --- |
| 188 | CN(c1ccccc1)c1nc(N)nc(-c2noc(-c3ccc(OCC4CC4)nc3)n2)n1 [Example 146, 6-{5-[6-(cyclopropylmethoxy)pyridin-3-yl]-1,2,4-oxadiazol-3-yl}-2-N-methyl-2-N-phenyl-1,3,5-triazine-2,4-diamine] |
| 1390 | CN(c1ccccc1)c1nc(N)nc(-c2noc(-c3ccc(F)cn3)n2)n1 [Example 153, 6-[5-(5-fluoropyridin-2-yl)-1,2,4-oxadiazol-3-yl]-2-N-methyl-2-N-phenyl-1,3,5-triazine-2,4-diamine] |
| 67 | CCOc1ccccc1-c1nc(-c2nc(N)nc(N(C)c3cccc(C)c3)n2)no1 [Example 183, 6-[5-(2-ethoxyphenyl)-1,2,4-oxadiazol-3-yl]-2-N-methyl-2-N-(3-methylphenyl)-1,3,5-triazine-2,4-diamine] |
| 2540 | Cc1ccc(-c2nc(-c3nc(N)nc(N(C)c4ccccc4)n3)no2)s1 [Example 129, N-Methyl-6-[5-(5-methyl-thiophen-2-yl)-[1,2,4]oxadiazol-3-yl]-N-phenyl-[1,3,5]triazine-2,4-diamine] |
| 749 | Cc1cccc(N(C)c2nc(N)nc(-c3noc(-c4ccco4)n3)n2)c1F [Example 107, N-(2-Fluoro-3-methyl-phenyl)-6-(5-furan-2-yl-[1,2,4]oxadiazol-3-yl)-N-methyl-[1,3,5]triazine-2,4-diamine] |
| 1020 | Nc1nc(-c2noc(-c3ccco3)n2)nc(N(CCO)c2ccccc2)n1 [Example 70, 2-{[4-Amino-6-(5-furan-2-yl-[1,2,4]oxadiazol-3-yl)-[1,3,5]triazin-2-yl]-phenyl-amino}-ethanol] |
| 8690 | COC(=O)c1cccc(Nc2nc(N)nc(-c3noc(-c4ccc(OCC(F)(F)F)nc4)n3)n2)c1 [Example 182, methyl 3-[(4-amino-6-{5-[6-(2,2,2-trifluoroethoxy)pyridin-3-yl]-1,2,4-oxadiazol-3-yl}-1,3,5-triazin-2-yl)amino]benzoate] |
| 1320 | CN(c1ccccc1)c1nc(N)nc(-c2noc(-c3cccnc3)n2)n1 [Example 115, N-Methyl-N-phenyl-6-(5-pyridin-3-yl-[1,2,4]oxadiazol-3-yl)-[1,3,5]triazine-2,4-diamine] |
| 1660 | CN(c1ccccc1)c1nc(N)nc(-c2noc(-c3ccc(C#N)nc3)n2)n1 [Example 78, 5-{3-[4-Amino-6-(methyl-phenyl-amino)-[1,3,5]triazin-2-yl]-[1,2,4]oxadiazol-5-yl}-pyridine-2-carbonitrile] |
| 428 | CN(c1ccccc1)c1nc(N)nc(-c2noc(-c3ccccc3F)n2)n1 [Example 124, 6-[5-(2-Fluoro-phenyl)-[1,2,4]oxadiazol-3-yl]-N-methyl-N-phenyl-[1,3,5]triazine-2,4-diamine] |
| 42 | CCN(c1ccccc1)c1nc(N)nc(-c2noc(-c3ccc(OCC(F)(F)F)nc3)n2)n1 [Example 147, 2-N-ethyl-2-N-phenyl-6-{5-[6-(2,2,2-trifluoroethoxy)pyridin-3-yl]-1,2,4-oxadiazol-3-yl}-1,3,5-triazine-2,4-diamine] |

Reference: patent US8895733B2 (Novartis AG, priority 2010, dated 2014)
